Experimental data taken from patent publication US20200138927A1, “NON-CROSS-LINKED […] […] […] FOR USE IN C[…]” (GlaxoSmithKline Biologicals SA, priority 2012, published 2020).
Converted amounts (≈) assume the structure as drawn.

Experiments:
[1] = Solubility in water; type: physicochemical
[2] = Adsorption to aluminium hydroxide; type: physicochemical

Cc1ccc2c(c1)nc(N)c1ncc(CCc3ccc(OCCOCCOCCC(F)(F)P(=O)(O)O)cc3C)cc12 [Compound K1]
solubility [1]: ~4000 µg/mL (≈ 6.78 mM) | adsorption to aluminium hydroxide [2]: adsorbs well
